According to ChEMBL document CHEMBL1128845, “Novel trityl linked drug immunoconjugates for cancer therapy” (Bioorg Med Chem Lett, 1995):
≈ marks a conversion by molar mass, not a printed value.

Key:
[1] = Conjugation ratio (CR) indicating the number of moles of compound required per 1 mole of antibody (having Molar input ratio (MIR) = 8) was determined
[2] = test system: LS174T; assay: Concentration required to inhibit the incorporation of [3H]leucine to 50 percent of control uptake in LS174T (CEA +ve) Human Colon Carcinoma cells; assay type: functional, cell-based

SMILES	CR [1]	IC50 [2] [µg/mL]
NC(=O)c1ccc(C(Nc2nc(N)nc3c2ncn3[C@@H]2O[C@H](CO)[C@@H](O)C2(F)F)(c2ccccc2)c2ccccc2)cc1	4.44	10 (≈ 17 µM)
Cc1ccc(C(Nc2nc(N)nc3c2ncn3[C@@H]2O[C@H](CO)[C@@H](O)C2(F)F)(c2ccccc2)c2ccc(C(N)=O)cc2)cc1 (stereo partly drawn)	5.2	6.04 (≈ 10 µM)
COc1ccc(C(Nc2nc(N)nc3c2ncn3[C@@H]2O[C@H](CO)[C@@H](O)C2(F)F)(c2ccc(C)cc2)c2ccc(C(N)=O)cc2)cc1 (stereo partly drawn)	7.49	2.71 (≈ 4.29 µM)
COc1ccc(C(Nc2nc(N)nc3c2ncn3[C@@H]2O[C@H](CO)[C@@H](O)C2(F)F)(c2ccc(OC)cc2)c2ccc(C(N)=O)cc2)cc1	7.44	0.27 (≈ 0.417 µM)
COc1ccc(C(Nc2nc(N)nc3c2ncn3[C@@H]2O[C@H](CO)[C@@H](O)C2(F)F)(c2ccc(OC)cc2)c2cccc(C(N)=O)c2)cc1	6.44	0.352 (≈ 0.544 µM)
COc1ccc(C(Nc2nc(N)nc3c2ncn3[C@@H]2O[C@H](CO)[C@@H](O)C2(F)F)(c2ccccc2)c2ccc(C(N)=O)cc2)cc1 (stereo partly drawn)	5.73	4.94 (≈ 8 µM)
Nc1nc(N)c2ncn([C@@H]3O[C@H](CO)[C@@H](O)C3(F)F)c2n1	–	0.26 (≈ 0.86 µM)
